Results as given in patent publication US10131652B2, “Pyrimidinyloxy benzene derivatives as herbicides” (E. I. DU PONT DE NEMOURS AND COMPANY, priority 2014, dated 2018).
Read-outs that look alike come from different tables or passages of the source.

What was measured:
Test in all cases: Test E pre-/postemergence plant response
Type in all cases: in vivo
[1] = tested on: chickweed (common chickweed, Stellaria media); conditions: scale 0 to 100, read-out: Plant response rating, Chickweed; for pest or weed control at 16 g/ha: 16 g ai/ha; for pest or weed control at 31 g/ha: 31 g ai/ha; for pest or weed control at 62 g/ha: 62 g ai/ha; for pest or weed control at 125 g/ha: 125 g ai/ha
Procedure, shortened: (§1)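 Visual scores on a 0–100 scale (100 = complete control) were assigned against untreated controls 7–21 days after treatment in a controlled environment. Compounds, formulated with solvent plus surfactant, were applied to pre-emergence silt-loam sowings or to 1- to 4-leaf plants (2–18 cm) in potting medium.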

[2] = tested on: winter barley (Hordeum vulgare); conditions: post-emergence, Postemergence, scale 0 to 100, read-out: Plant response rating, Barley, Winter
Procedure, shortened: as §1

[3] = tested on: Italian ryegrass (Lolium multiflorum); conditions: scale 0 to 100, read-out: Plant response rating, Ryegrass, Italian; for pest or weed control at 16 g/ha: 16 g ai/ha; for pest or weed control at 31 g/ha: 31 g ai/ha; for pest or weed control at 62 g/ha: 62 g ai/ha; for pest or weed control at 125 g/ha: 125 g ai/ha
Procedure, shortened: as §1

[4] = tested on: pigweed (Amaranthus retroflexus); conditions: scale 0 to 100, read-out: Plant response rating, Pigweed; for pest or weed control at 16 g/ha: 16 g ai/ha; for pest or weed control at 31 g/ha: 31 g ai/ha; for pest or weed control at 62 g/ha: 62 g ai/ha; for pest or weed control at 125 g/ha: 125 g ai/ha
Procedure, shortened: as §1

[5] = tested on: blackgrass (Alopecurus myosuroides); conditions: scale 0 to 100, read-out: Plant response rating, Blackgrass; for pest or weed control at 16 g/ha: 16 g ai/ha; for pest or weed control at 31 g/ha: 31 g ai/ha; for pest or weed control at 62 g/ha: 62 g ai/ha; for pest or weed control at 125 g/ha: 125 g ai/ha
Procedure, shortened: as §1

[6] = tested on: galium (catchweed bedstraw, Galium aparine); conditions: scale 0 to 100, read-out: Plant response rating, Galium; for pest or weed control at 16 g/ha: 16 g ai/ha; for pest or weed control at 31 g/ha: 31 g ai/ha; for pest or weed control at 62 g/ha: 62 g ai/ha; for pest or weed control at 125 g/ha: 125 g ai/ha
Procedure, shortened: as §1

[7] = tested on: wild radish (Raphanus raphanistrum); conditions: scale 0 to 100, read-out: Plant response rating, Radish, Wild; for pest or weed control at 16 g/ha: 16 g ai/ha; for pest or weed control at 31 g/ha: 31 g ai/ha; for pest or weed control at 62 g/ha: 62 g ai/ha; for pest or weed control at 125 g/ha: 125 g ai/ha
Procedure, shortened: as §1

[8] = tested on: field violet (Viola arvensis); conditions: scale 0 to 100, read-out: Plant response rating, Field Violet; for pest or weed control at 16 g/ha: 16 g ai/ha; for pest or weed control at 31 g/ha: 31 g ai/ha; for pest or weed control at 62 g/ha: 62 g ai/ha; for pest or weed control at 125 g/ha: 125 g ai/ha
Procedure, shortened: as §1

[9] = tested on: lambsquarters (Chenopodium album); conditions: scale 0 to 100, read-out: Plant response rating, Lambsquarters; for pest or weed control at 16 g/ha: 16 g ai/ha; for pest or weed control at 31 g/ha: 31 g ai/ha; for pest or weed control at 62 g/ha: 62 g ai/ha; for pest or weed control at 125 g/ha: 125 g ai/ha
Procedure, shortened: as §1

[10] = tested on: deadnettle (henbit deadnettle, Lamium amplexicaule); conditions: scale 0 to 100, read-out: Plant response rating, Deadnettle; for pest or weed control at 16 g/ha: 16 g ai/ha; for pest or weed control at 31 g/ha: 31 g ai/ha; for pest or weed control at 62 g/ha: 62 g ai/ha; for pest or weed control at 125 g/ha: 125 g ai/ha
Procedure, shortened: as §1

[11] = tested on: canarygrass (Phalaris minor); conditions: scale 0 to 100, read-out: Plant response rating, Canarygrass; for pest or weed control at 16 g/ha: 16 g ai/ha; for pest or weed control at 31 g/ha: 31 g ai/ha; for pest or weed control at 62 g/ha: 62 g ai/ha; for pest or weed control at 125 g/ha: 125 g ai/ha
Procedure, shortened: as §1

FC(F)c1cc(-c2ccccc2Oc2ncc(Cl)cn2)no1 [Compound 35, 5-chloro-2-[2-[5-(difluoromethyl)-3-isoxazolyl]phenoxy]pyrimidine] showed a pest or weed control at 16 g/ha ([1]; post-emergence, Postemergence) of 65%, a pest or weed control at 31 g/ha ([1]; post-emergence, Postemergence) of 75% and a pest or weed control at 62 g/ha ([1]; post-emergence, Postemergence) of 75%. The pest or weed control at 125 g/ha ([1]; post-emergence, Postemergence) was 100%, the pest or weed control at 16 g/ha ([1]; pre-emergence, Preemergence) was 55% and the pest or weed control at 31 g/ha ([1]; pre-emergence, Preemergence) was 100%. For the same compound, the pest or weed control at 62 g/ha ([1]; pre-emergence, Preemergence) was 95%, the pest or weed control at 125 g/ha ([1]; pre-emergence, Preemergence) was 100% and the plant injury at 16 g/ha ([2]; 16 g ai/ha) was 0%. For the same compound, the plant injury at 31 g/ha ([2]; 31 g ai/ha) was 0%, the plant injury at 62 g/ha ([2]; 62 g ai/ha) was 5% and the plant injury at 125 g/ha ([2]; 125 g ai/ha) was 30%. The pest or weed control at 16 g/ha ([3]; post-emergence, Postemergence) was 0%, the pest or weed control at 31 g/ha ([3]; post-emergence, Postemergence) was 5% and the pest or weed control at 62 g/ha ([3]; post-emergence, Postemergence) was 25%. The pest or weed control at 125 g/ha ([3]; post-emergence, Postemergence) was 60%, the pest or weed control at 16 g/ha ([3]; pre-emergence, Preemergence) was 0% and the pest or weed control at 31 g/ha ([3]; pre-emergence, Preemergence) was 25%. It also gave a pest or weed control at 62 g/ha ([3]; pre-emergence, Preemergence) of 35%, a pest or weed control at 125 g/ha ([3]; pre-emergence, Preemergence) of 75% and a pest or weed control at 16 g/ha ([4]; post-emergence, Postemergence) of 85%. It also gave a pest or weed control at 31 g/ha ([4]; post-emergence, Postemergence) of 90%, a pest or weed control at 62 g/ha ([4]; post-emergence, Postemergence) of 90% and a pest or weed control at 125 g/ha ([4]; post-emergence, Postemergence) of 90%. It also gave a pest or weed control at 16 g/ha ([4]; pre-emergence, Preemergence) of 90%, a pest or weed control at 31 g/ha ([4]; pre-emergence, Preemergence) of 95% and a pest or weed control at 62 g/ha ([4]; pre-emergence, Preemergence) of 100%. It also gave a pest or weed control at 125 g/ha ([4]; pre-emergence, Preemergence) of 100%, a pest or weed control at 16 g/ha ([5]; post-emergence, Postemergence) of 20% and a pest or weed control at 31 g/ha ([5]; post-emergence, Postemergence) of 35%. It also gave a pest or weed control at 62 g/ha ([5]; post-emergence, Postemergence) of 55%, a pest or weed control at 125 g/ha ([5]; post-emergence, Postemergence) of 60% and a pest or weed control at 16 g/ha ([5]; pre-emergence, Preemergence) of 30%. It also gave a pest or weed control at 31 g/ha ([5]; pre-emergence, Preemergence) of 60%, a pest or weed control at 62 g/ha ([5]; pre-emergence, Preemergence) of 65% and a pest or weed control at 125 g/ha ([5]; pre-emergence, Preemergence) of 95%. It also gave a pest or weed control at 16 g/ha ([6]; post-emergence, Postemergence) of 70%, a pest or weed control at 31 g/ha ([6]; post-emergence, Postemergence) of 80% and a pest or weed control at 62 g/ha ([6]; post-emergence, Postemergence) of 75%. The pest or weed control at 125 g/ha ([6]; post-emergence, Postemergence) was 85%, the pest or weed control at 16 g/ha ([6]; pre-emergence, Preemergence) was 25% and the pest or weed control at 31 g/ha ([6]; pre-emergence, Preemergence) was 55%. The pest or weed control at 62 g/ha ([6]; pre-emergence, Preemergence) was 100%, the pest or weed control at 125 g/ha ([6]; pre-emergence, Preemergence) was 100% and the pest or weed control at 16 g/ha ([7]; post-emergence, Postemergence) was 65%. The pest or weed control at 31 g/ha ([7]; post-emergence, Postemergence) was 75%, the pest or weed control at 62 g/ha ([7]; post-emergence, Postemergence) was 85% and the pest or weed control at 125 g/ha ([7]; post-emergence, Postemergence) was 95%. The pest or weed control at 16 g/ha ([7]; pre-emergence, Preemergence) was 100%, the pest or weed control at 31 g/ha ([7]; pre-emergence, Preemergence) was 95% and the pest or weed control at 62 g/ha ([7]; pre-emergence, Preemergence) was 100%. For the same compound, the pest or weed control at 125 g/ha ([7]; pre-emergence, Preemergence) was 100%, the pest or weed control at 16 g/ha ([8]; post-emergence, Postemergence) was 60% and the pest or weed control at 31 g/ha ([8]; post-emergence, Postemergence) was 65%. It also gave a pest or weed control at 62 g/ha ([8]; post-emergence, Postemergence) of 75%, a pest or weed control at 125 g/ha ([8]; post-emergence, Postemergence) of 75% and a pest or weed control at 16 g/ha ([8]; pre-emergence, Preemergence) of 15%. It also gave a pest or weed control at 31 g/ha ([8]; pre-emergence, Preemergence) of 70%, a pest or weed control at 62 g/ha ([8]; pre-emergence, Preemergence) of 90% and a pest or weed control at 125 g/ha ([8]; pre-emergence, Preemergence) of 100%. It also gave a pest or weed control at 16 g/ha ([9]; post-emergence, Postemergence) of 80%, a pest or weed control at 31 g/ha ([9]; post-emergence, Postemergence) of 80% and a pest or weed control at 62 g/ha ([9]; post-emergence, Postemergence) of 85%. It also gave a pest or weed control at 125 g/ha ([9]; post-emergence, Postemergence) of 90%, a pest or weed control at 16 g/ha ([9]; pre-emergence, Preemergence) of 65% and a pest or weed control at 31 g/ha ([9]; pre-emergence, Preemergence) of 85%. For the same compound, the pest or weed control at 62 g/ha ([9]; pre-emergence, Preemergence) was 90%, the pest or weed control at 125 g/ha ([9]; pre-emergence, Preemergence) was 100% and the pest or weed control at 16 g/ha ([10]; post-emergence, Postemergence) was 40%. It also gave a pest or weed control at 31 g/ha ([10]; post-emergence, Postemergence) of 60%, a pest or weed control at 62 g/ha ([10]; post-emergence, Postemergence) of 70% and a pest or weed control at 125 g/ha ([10]; post-emergence, Postemergence) of 80%. It also gave a pest or weed control at 16 g/ha ([10]; pre-emergence, Preemergence) of 35%, a pest or weed control at 31 g/ha ([10]; pre-emergence, Preemergence) of 80% and a pest or weed control at 62 g/ha ([10]; pre-emergence, Preemergence) of 95%. The pest or weed control at 125 g/ha ([10]; pre-emergence, Preemergence) was 95%, the pest or weed control at 16 g/ha ([11]; post-emergence, Postemergence) was 10% and the pest or weed control at 31 g/ha ([11]; post-emergence, Postemergence) was 25%. For the same compound, the pest or weed control at 62 g/ha ([11]; post-emergence, Postemergence) was 55%, the pest or weed control at 125 g/ha ([11]; post-emergence, Postemergence) was 60% and the pest or weed control at 16 g/ha ([11]; pre-emergence, Preemergence) was 40%. It also gave a pest or weed control at 31 g/ha ([11]; pre-emergence, Preemergence) of 55%, a pest or weed control at 62 g/ha ([11]; pre-emergence, Preemergence) of 95% and a pest or weed control at 125 g/ha ([11]; pre-emergence, Preemergence) of 100%.
